From PubChem BioAssay (NCI)
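Five compound concentrations were applied to cells in 96-well plates for 48 hours; endpoints were derived by simple linear interpolation of the resulting dose-response curve. Here, GI50 denotes the concentration required for 50% inhibition of growth. TGI marks complete inhibition of growth.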

Columns and labels:
Assay in all cases: inhibition of tumour cell growth, NCI panel, 48 h
DU-145 prostate = tested on: DU-145 prostate
HT29 colon = tested on: HT29 colon
T-47D breast = tested on: T-47D breast
UO-31 renal = tested on: UO-31 renal
SNB-75 CNS = tested on: SNB-75 CNS
SR leukemia = tested on: SR leukemia
SK-MEL-2 melanoma = tested on: SK-MEL-2 melanoma
SF-295 CNS = tested on: SF-295 CNS
SF-539 CNS = tested on: SF-539 CNS
PC-3 prostate = tested on: PC-3 prostate
KM12 colon = tested on: KM12 colon
NCI-H522 lung = tested on: NCI-H522 lung
OVCAR-4 ovarian = tested on: OVCAR-4 ovarian
SNB-19 CNS = tested on: SNB-19 CNS
M14 melanoma = tested on: M14 melanoma
LOX IMVI melanoma = tested on: LOX IMVI melanoma
786-0 renal = tested on: 786-0 renal
IGROV1 ovarian = tested on: IGROV1 ovarian
HCC-2998 colon = tested on: HCC-2998 colon
HOP-62 NSCLC = tested on: HOP-62 NSCLC
MALME-3M melanoma = tested on: MALME-3M melanoma
ACHN renal = tested on: ACHN renal
RPMI-8226 leukemia = tested on: RPMI-8226 leukemia
K-562 leukemia = tested on: K-562 leukemia
MOLT-4 leukemia = tested on: MOLT-4 leukemia
MCF7 breast = tested on: MCF7 breast
SK-OV-3 ovarian = tested on: SK-OV-3 ovarian
SW-620 colon = tested on: SW-620 colon
OVCAR-5 ovarian = tested on: OVCAR-5 ovarian
MDA-MB-435 = tested on: MDA-MB-435
NCI/ADR-RES ovarian = tested on: NCI/ADR-RES ovarian
OVCAR-8 ovarian = tested on: OVCAR-8 ovarian
A498 renal = tested on: A498 renal
OVCAR-3 ovarian = tested on: OVCAR-3 ovarian
HL-60(TB) leukemia = tested on: HL-60(TB) leukemia
MDA-MB-231 breast = tested on: MDA-MB-231 breast
NCI-H226 lung = tested on: NCI-H226 lung
SF-268 CNS = tested on: SF-268 CNS
COLO 205 colon = tested on: COLO 205 colon
NCI-H460 lung = tested on: NCI-H460 lung
UACC-257 melanoma = tested on: UACC-257 melanoma
SK-MEL-28 melanoma = tested on: SK-MEL-28 melanoma
BT-549 breast = tested on: BT-549 breast
HOP-92 NSCLC = tested on: HOP-92 NSCLC
HS 578T breast = tested on: HS 578T breast
HCT-116 colon = tested on: HCT-116 colon
CCRF-CEM leukemia = tested on: CCRF-CEM leukemia
SN12C renal = tested on: SN12C renal
RXF 393 renal = tested on: RXF 393 renal
SK-MEL-5 melanoma = tested on: SK-MEL-5 melanoma
A549 NSCLC = tested on: A549 NSCLC
HCT-15 colon = tested on: HCT-15 colon
TK-10 renal = tested on: TK-10 renal
U251 CNS = tested on: U251 CNS
EKVX NSCLC = tested on: EKVX NSCLC
UACC-62 melanoma = tested on: UACC-62 melanoma
NCI-H23 lung = tested on: NCI-H23 lung
CAKI-1 renal = tested on: CAKI-1 renal

**Q.** What does the source list for `COc1cccc(-n2ncc3c(N/N=C/c4ccc(F)cc4)ncnc32)c1`?
**A.** GI50 (DU-145 prostate): 17.4 µM; TGI (DU-145 prostate): > 25 µM; GI50 (HT29 colon): > 25 µM; TGI (HT29 colon): > 25 µM; GI50 (T-47D breast): 11.6 µM; TGI (T-47D breast): > 25 µM; GI50 (UO-31 renal): > 14.6 µM; TGI (UO-31 renal): > 25 µM; GI50 (SNB-75 CNS): 5.98 µM; TGI (SNB-75 CNS): > 18.6 µM; GI50 (SR leukemia): > 25 µM; TGI (SR leukemia): > 25 µM; GI50 (SK-MEL-2 melanoma): > 25 µM; TGI (SK-MEL-2 melanoma): > 25 µM; GI50 (SF-295 CNS): > 25 µM; TGI (SF-295 CNS): > 25 µM; GI50 (SF-539 CNS): 13.9 µM; TGI (SF-539 CNS): > 25 µM; GI50 (PC-3 prostate): > 25 µM; TGI (PC-3 prostate): > 25 µM; GI50 (KM12 colon): 18.4 µM; TGI (KM12 colon): > 25 µM; GI50 (NCI-H522 lung): > 19.1 µM; TGI (NCI-H522 lung): > 25 µM; GI50 (OVCAR-4 ovarian): 6.55 µM; TGI (OVCAR-4 ovarian): 14.5 µM; GI50 (SNB-19 CNS): 24.5 µM; TGI (SNB-19 CNS): > 25 µM; GI50 (M14 melanoma): > 23.6 µM; TGI (M14 melanoma): > 25 µM; GI50 (LOX IMVI melanoma): > 25 µM; TGI (LOX IMVI melanoma): > 25 µM; GI50 (786-0 renal): 11.8 µM; TGI (786-0 renal): > 19.5 µM; GI50 (IGROV1 ovarian): > 25 µM; TGI (IGROV1 ovarian): > 25 µM; GI50 (HCC-2998 colon): > 25 µM; TGI (HCC-2998 colon): > 25 µM; GI50 (HOP-62 NSCLC): 16.7 µM; TGI (HOP-62 NSCLC): > 25 µM; GI50 (MALME-3M melanoma): 11.3 µM; TGI (MALME-3M melanoma): > 25 µM; GI50 (ACHN renal): > 25 µM; TGI (ACHN renal): > 25 µM; GI50 (RPMI-8226 leukemia): > 25 µM; TGI (RPMI-8226 leukemia): > 25 µM; GI50 (K-562 leukemia): > 25 µM; TGI (K-562 leukemia): > 25 µM; GI50 (MOLT-4 leukemia): > 25 µM; TGI (MOLT-4 leukemia): > 25 µM; GI50 (MCF7 breast): > 17 µM; TGI (MCF7 breast): > 25 µM; GI50 (SK-OV-3 ovarian): 13.6 µM; TGI (SK-OV-3 ovarian): > 25 µM; GI50 (SW-620 colon): 24.3 µM; TGI (SW-620 colon): > 25 µM; GI50 (OVCAR-5 ovarian): > 25 µM; TGI (OVCAR-5 ovarian): > 25 µM; GI50 (MDA-MB-435): 14.5 µM; TGI (MDA-MB-435): > 25 µM; GI50 (NCI/ADR-RES ovarian): 14.2 µM; TGI (NCI/ADR-RES ovarian): > 25 µM; GI50 (OVCAR-8 ovarian): 14.8 µM; TGI (OVCAR-8 ovarian): > 25 µM; GI50 (A498 renal): > 16.1 µM; TGI (A498 renal): > 25 µM; GI50 (OVCAR-3 ovarian): 5.27 µM; TGI (OVCAR-3 ovarian): 10.3 µM; GI50 (HL-60(TB) leukemia): > 25 µM; TGI (HL-60(TB) leukemia): > 25 µM; GI50 (MDA-MB-231 breast): 8.59 µM; TGI (MDA-MB-231 breast): > 25 µM; GI50 (NCI-H226 lung): > 25 µM; TGI (NCI-H226 lung): > 25 µM; GI50 (SF-268 CNS): > 25 µM; TGI (SF-268 CNS): > 25 µM; GI50 (COLO 205 colon): > 25 µM; TGI (COLO 205 colon): > 25 µM; GI50 (NCI-H460 lung): 10.3 µM; TGI (NCI-H460 lung): 24.7 µM; GI50 (UACC-257 melanoma): > 25 µM; TGI (UACC-257 melanoma): > 25 µM; GI50 (SK-MEL-28 melanoma): > 25 µM; TGI (SK-MEL-28 melanoma): > 25 µM; GI50 (BT-549 breast): > 25 µM; TGI (BT-549 breast): > 25 µM; GI50 (HOP-92 NSCLC): 6.48 µM; TGI (HOP-92 NSCLC): 19.9 µM; GI50 (HS 578T breast): 7.51 µM; TGI (HS 578T breast): 22.1 µM; GI50 (HCT-116 colon): 10.2 µM; TGI (HCT-116 colon): > 25 µM; GI50 (CCRF-CEM leukemia): > 25 µM; TGI (CCRF-CEM leukemia): > 25 µM; GI50 (SN12C renal): 23 µM; TGI (SN12C renal): > 25 µM; GI50 (RXF 393 renal): 10.6 µM; TGI (RXF 393 renal): 24.9 µM; GI50 (SK-MEL-5 melanoma): 14.7 µM; TGI (SK-MEL-5 melanoma): > 25 µM; GI50 (A549 NSCLC): 11.6 µM; TGI (A549 NSCLC): > 25 µM; GI50 (HCT-15 colon): > 25 µM; TGI (HCT-15 colon): > 25 µM; GI50 (TK-10 renal): 12.4 µM; TGI (TK-10 renal): > 23.3 µM; GI50 (U251 CNS): 8.81 µM; TGI (U251 CNS): > 21.9 µM; GI50 (EKVX NSCLC): > 25 µM; TGI (EKVX NSCLC): > 25 µM; GI50 (UACC-62 melanoma): > 25 µM; TGI (UACC-62 melanoma): > 25 µM; GI50 (NCI-H23 lung): > 20.1 µM; TGI (NCI-H23 lung): > 25 µM; GI50 (CAKI-1 renal): > 18.7 µM; TGI (CAKI-1 renal): > 25 µM
